# Experimental data: US4353923A, “Pharmaceutical composition containing a benzofurancarboxamide derivative as the active ingredient” (Kyowa Hakko Kogyo Co., Ltd., priority 1980, dated 1982)
# Structures can show the parent of a compound that is named as a salt.
# Legend:
# in vivo = conditions: mouse, po, mice, deaths counted for 7 days
# Description: In this example, 3-7 male dd mice weighing 20±1 g were used as one group. Each drug was suspended in a 0.3% CMC solution and orally administered. After the administration, number of dead animals was counted for 7 days to determine LD50 value. As the reference drugs, mepirizole and benzydamine hydrochloride were dissolved in water and orally administered. The drugs and the reference drugs were also administered in the same manner as above in Examples 2-5.
# male dd mice [1] = assay: Muscle relaxant activity: slant test; assay type: in vivo; conditions: 300 mg/kg p.o., 5 mice per group
# Description: (§1) In this example, 5 male dd mice weighing 20±1 g were used as one group. Prior to the experiments, mice were placed on the rod having a diameter of 3 cm and rotating at 5 r.p.m. in the reverse direction of the rotation. […] The drugs were orally administered and the muscle relaxant activity with the passage of time was examined by the following tests.
# Slant test: Each mouse was placed on a wire net inclined at an angle of 45° to observe whether it falls or not.
# (§2) In each test, the drug was considered to have a muscle relaxant activity when the mouse fell.
# male dd mice [2] = assay: Muscle relaxant activity: rotating rod test; assay type: in vivo; conditions: 5 mice per group
# Description: as §1
# Rotating rod test: The same mouse was placed on the rotating rod to observe whether it falls or not within 2 minutes.
# as §2
# male dd mice [3] = assay: Muscle relaxant activity: traction test; assay type: in vivo; conditions: 5 mice per group
# From the text: as §1
# Traction test: Forefeet of the same mouse were placed on a wire to observe whether it falls or not.
# as §2
# male dd mice [4] = assay: Anticonvulsant activity: maximal electroshock convulsion test; assay type: in vivo; conditions: Mus musculus, po, 1 h, 60 min after administration, read-out: Maximal electroshock convulsion test, inhibition ratio; for responders at 50 mg/kg: 50 mg/kg p.o.; for responders at 75 mg/kg: 75 mg/kg p.o.
# From the text: Anticonvulsant activity was examined according to maximal electroshock convulsion test.
# In this experiment, 10 male dd mice weighing 23±1 g were used as one group. Each drug was orally administered to the animals. Sixty minutes after the administration, an electric current (2000 V, 50 mA) was applied to both eyes of the mouse for 0.2 second. Drug activity was judged according to whether tonic extensor seizures were observed or not.
# male dd mice [5] = assay: Analgesic activity: acetic acid writhing; assay type: in vivo; conditions: Mus musculus, po, 1 h, acetic acid i.p. after 60 min, read-out: Inhibition ratio (writhes, vs control); for inhibition in vivo at 50 mg/kg: 50 mg/kg p.o.
# Description: In this experiment, 10 male dd mice weighing 20±1 g were used as one group for examination of analgesic activity. Sixty minutes after oral administration of each drug to each animal, 0.2 ml of a 0.7% acetic acid solution was intraperitoneally administered to the animal. Starting 10 minutes after the administration of acetic acid, the number of writhes occurred in 10 minutes was counted. Average number of writhes and inhibition ratio in comparison with control group were calculated.
# male Wistar rats = assay: Anti-inflammatory activity: carrageenin edema method; assay type: in vivo; conditions: Rattus norvegicus, po, 3 hours after carrageenin, read-out: Inhibition ratio (paw swelling, vs control)
# Description: In this experiment, 5 male Wistar rats weighing 140±10 g were used as one group. Sixty minutes after oral administration of each drug to each animal, 0.1 ml of a 1% carrageenin solution as a phlogistic agent was injected into the plantar surface of the right hind paw of the animal to induce inflammation. The volume of the paw was measured before and 3 hours after the injection of the phlogistic agent. Swelling ratio and inhibition ratio in comparison with control group were calculated.
smiles,measurement,setting,value
"CN(C)CCCOc1nn(Cc2ccccc2)c2ccccc12 [Benzydamine hydrochloride, benzydamine hydrochloride, reference compound]",LD50 at 168 h,in vivo,500 to 1000 mg/kg
same,"Number of dropped mice, slant test",male dd mice [1]; 1 hr,4 mice
same,"Number of dropped mice, slant test",male dd mice [1]; 2 hr,2 mice
same,"Number of dropped mice, slant test",male dd mice [1]; 3 hr,0 mice
same,"Number of dropped mice, rotating rod test","male dd mice [2]; 300 mg/kg p.o., 1 hr",5 mice
same,"Number of dropped mice, rotating rod test","male dd mice [2]; 300 mg/kg p.o., 2 hr",3 mice
same,"Number of dropped mice, rotating rod test","male dd mice [2]; 300 mg/kg p.o., 3 hr",2 mice
same,"Number of dropped mice, traction test","male dd mice [3]; 300 mg/kg p.o., 1 hr",5 mice
same,"Number of dropped mice, traction test","male dd mice [3]; 300 mg/kg p.o., 2 hr",1 mice
same,"Number of dropped mice, traction test","male dd mice [3]; 300 mg/kg p.o., 3 hr",0 mice
same,responders at 50 mg/kg,male dd mice [4],35%
same,responders at 75 mg/kg,male dd mice [4],90%
same,responders at 100 mg/kg,male dd mice [4]; 100 mg/kg p.o.,100%
same,responders at 300 mg/kg,male dd mice [4]; 300 mg/kg p.o.,100%
same,inhibition in vivo at 50 mg/kg,male dd mice [5],0%
same,inhibition in vivo at 200 mg/kg,male dd mice [5]; 200 mg/kg p.o.,83.7%
same,inhibition in vivo at 100 mg/kg,male Wistar rats; 100 mg/kg p.o.,14.4%
same,inhibition in vivo at 200 mg/kg,male Wistar rats; 200 mg/kg p.o.,23.5%
"Cc1c(C(=O)N(C)C)oc2cccc(Cl)c12 [Compound (A), 4-Chloro-N,N,3-trimethyl-benzo[b]furan-2-carboxamide]",LD50 at 168 h,in vivo,> 1000 mg/kg
same,"Number of dropped mice, slant test",male dd mice [1]; 1 hr,4 mice
same,"Number of dropped mice, slant test",male dd mice [1]; 2 hr,3 mice
same,"Number of dropped mice, slant test",male dd mice [1]; 3 hr,3 mice
same,"Number of dropped mice, rotating rod test","male dd mice [2]; 75 mg/kg p.o., 1 hr",3 mice
same,"Number of dropped mice, rotating rod test","male dd mice [2]; 75 mg/kg p.o., 2 hr",2 mice
same,"Number of dropped mice, rotating rod test","male dd mice [2]; 75 mg/kg p.o., 3 hr",1 mice
same,"Number of dropped mice, rotating rod test","male dd mice [2]; 150 mg/kg p.o., 1 hr",5 mice
same,"Number of dropped mice, rotating rod test","male dd mice [2]; 150 mg/kg p.o., 2 hr",5 mice
same,"Number of dropped mice, rotating rod test","male dd mice [2]; 150 mg/kg p.o., 3 hr",2 mice
same,"Number of dropped mice, traction test","male dd mice [3]; 75 mg/kg p.o., 1 hr",3 mice
same,"Number of dropped mice, traction test","male dd mice [3]; 75 mg/kg p.o., 2 hr",0 mice
same,"Number of dropped mice, traction test","male dd mice [3]; 75 mg/kg p.o., 3 hr",0 mice
same,"Number of dropped mice, traction test","male dd mice [3]; 150 mg/kg p.o., 1 hr",5 mice
same,"Number of dropped mice, traction test","male dd mice [3]; 150 mg/kg p.o., 2 hr",3 mice
same,"Number of dropped mice, traction test","male dd mice [3]; 150 mg/kg p.o., 3 hr",1 mice
same,responders at 25 mg/kg,male dd mice [4]; 25 mg/kg p.o.,10%
same,responders at 50 mg/kg,male dd mice [4],30%
same,responders at 75 mg/kg,male dd mice [4],80%
same,inhibition in vivo at 50 mg/kg,male dd mice [5],60.6%
same,inhibition in vivo at 150 mg/kg,male dd mice [5]; 150 mg/kg p.o.,100%
same,inhibition in vivo at 150 mg/kg,male Wistar rats; 150 mg/kg p.o.,33.4%
